Measured values from the supplement of paper PMC10307832.

Tests used:
Experiment in all cases: relative viability (nuclei count vs DMSO), 5 days (fraction); higher = more cells survive
Etoposide + Lapatinib = compound: COc1cc([C@@H]2c3cc4c(cc3[C@@H](O[C@@H]3O[C@@H]5CO[C@@H](C)O[C@H]5[C@H](O)[C@H]3O)[C@H]3COC(=O)[C@H]23)OCO4)cc(OC)c1O [Etoposide] + CS(=O)(=O)CCNCc1ccc(-c2ccc3ncnc(Nc4ccc(OCc5cccc(F)c5)c(Cl)c4)c3c2)o1 [Lapatinib] (partner 2 µM)
How it was run: (§1)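 The day after seeding in 1536-well plates, lung cancer cell lines were treated by pin tool with a single drug, or with a fixed anchor-drug dose together with five library-drug doses (not always all listed) in √10 steps. After 5 days, a combined fix-and-stain solution (final 0.05% Triton X-100, 1% formaldehyde, 1 ug/ml Hoechst) was added. Nuclei counted on 4× images gave relative viability as treated counts over vehicle counts, reported as the median of duplicate plates.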

Bleomycin + Lapatinib = compound: CC1=C(N=C(N=C1N)[C@H](CC(=O)N)NC[C@@H](C(=O)N)N)C(=O)N[C@@H]([C@H](C2=CN=CN2)OC3C(C(C(C(O3)CO)O)O)OC4C(C(C(C(O4)CO)O)OC(=O)N)O)C(=O)N[C@H](C)[C@H]([C@H](C)C(=O)N[C@@H]([C@@H](C)O)C(=O)NCCC5=NC(=CS5)C6=NC(=CS6)C(=O)NCCC[S+](C)C)O [Bleomycin] + CS(=O)(=O)CCNCc1ccc(-c2ccc3ncnc(Nc4ccc(OCc5cccc(F)c5)c(Cl)c4)c3c2)o1 [Lapatinib] (partner 2 µM); settings: main component drawn
How it was run: as §1

Etoposide + Alpelisib = compound: COc1cc([C@@H]2c3cc4c(cc3[C@@H](O[C@@H]3O[C@@H]5CO[C@@H](C)O[C@H]5[C@H](O)[C@H]3O)[C@H]3COC(=O)[C@H]23)OCO4)cc(OC)c1O [Etoposide] + Cc1nc(NC(=O)N2CCC[C@H]2C(N)=O)sc1-c1ccnc(C(C)(C)C(F)(F)F)c1 [Alpelisib] (partner 2 µM)
How it was run: as §1

Bleomycin + Pictilisib = compound: CC1=C(N=C(N=C1N)[C@H](CC(=O)N)NC[C@@H](C(=O)N)N)C(=O)N[C@@H]([C@H](C2=CN=CN2)OC3C(C(C(C(O3)CO)O)O)OC4C(C(C(C(O4)CO)O)OC(=O)N)O)C(=O)N[C@H](C)[C@H]([C@H](C)C(=O)N[C@@H]([C@@H](C)O)C(=O)NCCC5=NC(=CS5)C6=NC(=CS6)C(=O)NCCC[S+](C)C)O [Bleomycin] + CS(=O)(=O)N1CCN(Cc2cc3nc(-c4cccc5[nH]ncc45)nc(N4CCOCC4)c3s2)CC1 [Pictilisib] (partner 1 µM); settings: main component drawn
How it was run: as §1

Cell Line	relative viability (Etoposide + Lapatinib; first compound 0.01 µM)	relative viability (Etoposide + Lapatinib; first compound 0.03162 µM)	relative viability (Etoposide + Lapatinib; first compound 0.1 µM)	relative viability (Etoposide + Lapatinib; first compound 0.3162 µM)	relative viability (Etoposide + Lapatinib; first compound 1 µM)	relative viability (Bleomycin + Lapatinib; first compound 0.01 µM)	relative viability (Bleomycin + Lapatinib; first compound 0.03162 µM)	relative viability (Bleomycin + Lapatinib; first compound 0.1 µM)	relative viability (Bleomycin + Lapatinib; first compound 0.3162 µM)	relative viability (Bleomycin + Lapatinib; first compound 1 µM)	relative viability (Etoposide + Alpelisib; first compound 0.01 µM)	relative viability (Etoposide + Alpelisib; first compound 0.03162 µM)	relative viability (Etoposide + Alpelisib; first compound 0.1 µM)	relative viability (Etoposide + Alpelisib; first compound 0.3162 µM)	relative viability (Etoposide + Alpelisib; first compound 1 µM)	relative viability (Bleomycin + Pictilisib; first compound 0.01 µM)	relative viability (Bleomycin + Pictilisib; first compound 0.03162 µM)	relative viability (Bleomycin + Pictilisib; first compound 0.1 µM)	relative viability (Bleomycin + Pictilisib; first compound 0.3162 µM)	relative viability (Bleomycin + Pictilisib; first compound 1 µM)
NCI-H2126	0.784	0.756	0.52	0.595	0.383	0.768	0.76	0.735	0.638	0.548	0.75	0.75	0.52	0.723	0.306	0.498	0.471	0.501	0.391	0.365
LK-2	0.949	1.23	0.566	0.555	0.217	0.66	0.488	0.542	0.261	0.248	1.01	1.12	0.71	0.764	0.288	0.517	0.489	0.437	0.287	0.278
NCI-H1437	0.754	0.837	0.577	0.398	0.186	0.711	0.743	0.775	0.296	0.373	0.915	0.945	0.883	0.42	0.256	0.47	0.407	0.24	0.146	0.224
COR-L23	0.854	1.06	0.92	0.588	0.14	0.707	0.776	0.294	0.14	0.115	0.543	0.891	0.771	0.461	0.219	0.705	0.7	0.433	0.129	0.0958
ABC-1	1.05	1.34	1.09	1.1	0.667	1.01	1.03	1.23	1.01	0.961	1.03	1.1	1.02	0.577	0.243	0.68	0.689	0.719	0.333	0.286
PC-14	0.307	0.349	0.225	0.366	0.229	0.302	0.244	0.222	0.096	0.0848	0.927	1.08	1.1	0.835	0.808	0.369	0.259	0.159	0.0359	0.0457
A549	0.957	0.811	0.537	0.244	0.111	0.695	0.634	0.38	0.0818	0.0645	0.737	0.793	0.375	0.224	0.0497	0.4	0.389	0.323	0.0899	0.0479
A-427	1.04	1.06	0.807	0.604	0.196	0.797	0.874	0.776	0.369	0.169	1.07	1.14	0.713	0.755	0.229	0.58	0.488	0.492	0.155	0.174
NCI-H1792	0.939	0.832	0.883	0.798	0.595	0.848	0.798	0.841	0.326	0.139	0.61	0.415	0.374	0.549	0.302	0.301	0.231	0.217	0.102	0.122
LCLC-97TM1		1.23	0.465	0.23	0.124	0.264	0.288	0.151	0.168	0.093		0.309	0.132	0.139	0.107	0.141	0.119	0.141	0.0993	0.0953
NCI-H1703		1.14	0.866	0.376	0.271	1.01	1	0.807	0.287	0.281	0.406	0.367	0.31	0.287	0.255	0.226	0.236	0.26	0.219	0.176
LCLC-103H											1.02	1.12	0.774	0.973	0.703	0.638	0.573	0.54	0.34	0.255
RERF-LC-KJ	0.882	0.863	0.626	0.828	0.733	0.72	0.702	0.59	0.354	0.254	0.73	0.924	0.513	0.852	0.622	0.269	0.433	0.316	0.188	0.167
BEN	0.81	0.733		0.663	0.458	0.72	0.709	0.913	0.571	0.542	0.841	1.08		0.87	0.852	0.573	0.57	0.54	0.389	0.435
ChaGo-K-1																	0.728	0.655	0.406	0.217
NCI-H441											0.473	0.722	0.362	0.16	0.174		0.439	0.482	0.316	0.267
